Target: T1, human Y4 receptor (Homo sapiens, UniProt P50391)
T1 construct: expressed in transfected cells
Experiment: NPY4 cAMP HTRF Agonist Assay (inhibitory cAMP assay, Gi activation by Y4 agonism)
Type: cell-based
Conditions: human Y4 stable CHO clonal cells, forskolin + IBMX; read-out: NPY4 cAMP HTRF Agonist Assay EC50
Method: NPY4 cAMP HTRF Agonist Assay
The functionality of the compound at Y4 receptor was analyzed using a inhibitory cAMP assay (CISBIO, HTRF cAMP kit #62AM4PEC) to measure the Gi activation by Y4 agonism.
The human Y4 stable CHO clonal cells were maintained in culture medium (F-12 containing 10% Fetal Bovine Serum, […] GENETICIN®, […] Zeocin). Before the experiment, 5 μL of 1 uM Forskolin (Sigma, # F6886) and 100 uM IBMX (Sigma, # I5879) in PBS buffer were added into 384-well plates (PE, Proxi-plate) that were pre-dotted with 100 nL compounds. The cells were removed from the flasks by Cellstripper, counted and adjusted to 1.0×10^6 cells/mL in PBS buffer, and added 5 μL/well (5000 cells/well) into the above 384-well plates. The cells were then covered and incubated for 30 minutes at room temperature. After incubation, 5 μL/well of D2-conjugate in HTRF lysis buffer was first added, followed by adding 5 μL/well of anti-cAMP Cryptate in HTRF lysis buffer. The plates were incubated for another 1 hour at room temperature and read on the EnVision Multilabel Plate Reader.
Compounds described herein were tested in the above assay.

T1 sequence (P50391 whole entry): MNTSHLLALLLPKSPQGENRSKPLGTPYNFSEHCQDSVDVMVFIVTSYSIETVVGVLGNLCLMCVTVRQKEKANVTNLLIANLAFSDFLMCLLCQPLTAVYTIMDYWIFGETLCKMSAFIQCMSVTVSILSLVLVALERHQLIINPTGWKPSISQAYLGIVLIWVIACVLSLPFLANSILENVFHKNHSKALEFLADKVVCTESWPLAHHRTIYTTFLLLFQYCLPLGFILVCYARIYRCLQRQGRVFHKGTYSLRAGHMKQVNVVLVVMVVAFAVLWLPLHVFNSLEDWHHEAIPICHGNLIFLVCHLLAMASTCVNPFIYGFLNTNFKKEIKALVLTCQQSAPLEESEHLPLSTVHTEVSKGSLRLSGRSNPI

| EC50 | SMILES |
| --- | --- |
| 43 nM | O=[N+]([O-])c1ccc(N2CCC[C@H](N[C@@H]3CCCC[C@H]3Nc3ncc(-c4cccc(OC(F)(F)F)c4)o3)C2)cc1 [Example 22, (1R,2R)—N1-((S)-1-(4-Nitrophenyl)piperidin-3-yl)-N2-(5-(3-(trifluoromethoxy)phenyl)oxazol-2-yl)cyclohexane-1,2-diamine] |
| 71 nM | O=[N+]([O-])c1ccc(N2CCC[C@H](N[C@@H]3CCCC[C@H]3Nc3cc(-c4cccc(OC(F)(F)F)c4)ccn3)C2)cc1 [Example 23, (1R,2R)—N1-((S)-1-(4-Nitrophenyl)piperidin-3-yl)-N2-(4-(3-(trifluoromethoxy)phenyl)pyridin-2-yl)cyclohexane-1,2-diamine] |
| 69 nM | O=[N+]([O-])c1ccc(N2CCC[C@H](N[C@@H]3CCCC[C@H]3Nc3cc(-c4ccc(OC(F)(F)F)cc4)ccn3)C2)cc1 [Example 24, (1R,2R)—N1-((S)-1-(4-Nitrophenyl)piperidin-3-yl)-N2-(4-(4-(trifluoromethoxy)phenyl)pyridin-2-yl)cyclohexane-1,2-diamine] |
| 14 nM | O=[N+]([O-])c1ccc(N2CCC[C@H](N[C@@H]3CCCC[C@H]3Nc3cc(-c4ccccc4)ccn3)C2)cc1 [Example 25, (1R,2R)—N1-((S)-1-(4-Nitrophenyl)piperidin-3-yl)-N2-(4-phenylpyridin-2-yl)cyclohexane-1,2-diamine] |
| 8 nM | O=[N+]([O-])c1ccc(N2CCC[C@H](N[C@@H]3CCCC[C@H]3Nc3ncc(-c4ccccc4)s3)C2)cc1 [Example 26] |
| 60 nM | O=[N+]([O-])c1ccc(N2CCC[C@H](N[C@@H]3CCCC[C@H]3Nc3nnc(-c4ccccc4)o3)C2)cc1 [Example 27, (1R,2R)—N1-((S)-1-(4-Nitrophenyl)piperidin-3-yl)-N2-(5-phenyl-1,3,4-oxadiazol-2-yl)cyclohexane-1,2-diamine] |
| 217 nM | O=[N+]([O-])c1ccc(N2CCC[C@H](N[C@@H]3CCCC[C@H]3Nc3nccc(-c4ccc(OC(F)(F)F)cc4)n3)C2)cc1 [Example 28, (1R,2R)—N1-((S)-1-(4-Nitrophenyl)piperidin-3-yl)-N2-(4-(4-(trifluoromethoxy)phenyl)pyrimidin-2-yl)cyclohexane-1,2-diamine] |
| 389 nM | O=[N+]([O-])c1ccc(N2CCC[C@H](N[C@@H]3CCCC[C@H]3Nc3nccc(-c4cccc(OC(F)(F)F)c4)n3)C2)cc1 [Example 29, (1R,2R)—N1-((S)-1-(4-Nitrophenyl)piperidin-3-yl)-N2-(4-(3-(trifluoromethoxy)phenyl)pyrimidin-2-yl)cyclohexane-1,2-diamine] |
| 203 nM | COc1cccc(-c2ccnc(N[C@@H]3CCCC[C@H]3N[C@H]3CCCN(c4ccc([N+](=O)[O-])cc4)C3)n2)c1 [Example 30, (1R,2R)—N1-(4-(3-Methoxyphenyl)pyrimidin-2-yl)-N2-((S)-1-(4-nitrophenyl)piperidin-3-yl)cyclohexane-1,2-diamine] |
| 241 nM | COc1ccc(-c2ccnc(N[C@@H]3CCCC[C@H]3N[C@H]3CCCN(c4ccc([N+](=O)[O-])cc4)C3)n2)cc1 [Example 31, (1R,2R)—N1-(4-(4-Methoxyphenyl)pyrimidin-2-yl)-N2-((S)-1-(4-nitrophenyl)piperidin-3-yl)cyclohexane-1,2-diamine] |
| 60 nM | O=[N+]([O-])c1ccc(N2CCC[C@H](N[C@@H]3CCCC[C@H]3Nc3nccc(-c4ccccc4)n3)C2)cc1 [Example 32, (1R,2R)—N1-((S)-1-(4-Nitrophenyl)piperidin-3-yl)-N2-(4-phenylpyrimidin-2-yl)cyclohexane-1,2-diamine] |
| 322 nM | N#Cc1ccc(N2CCC[C@H](N[C@@H]3CCCC[C@H]3Nc3cc(-c4cc[nH]n4)ccn3)C2)cc1 [Example 33, 4-((S)-3-((1R,2R)-2-(4-(1H-Pyrazol-3-yl)pyridin-2-ylamino)cyclohexylamino)piperidin-1-yl)benzonitrile tris-trifluoroacetate] |
| 150 nM | Cn1nccc1-c1ccnc(N[C@@H]2CCCC[C@H]2N[C@H]2CCCN(c3ccc(C#N)cc3)C2)c1 [Example 34, 4-((S)-3-((1R,2R)-2-(4-(1-Methyl-1H-pyrazol-5-yl)pyridin-2-ylamino)cyclohexylamino)piperidin-1-yl)benzonitrile tris-trifluoroacetate] |
| 42 nM | N#Cc1ccc(N2CCC[C@H](N[C@@H]3CCCC[C@H]3Nc3ncc(-c4cccc(F)c4)o3)C2)cc1 [Example 35, 4-((S)-3-((1R,2R)-2-(5-(3-Fluorophenyl)oxazol-2-ylamino)cyclohexylamino)piperidin-1-yl)benzonitrile] |
| 262 nM | N#Cc1ccc(N2CCC[C@H](N[C@@H]3CCCC[C@H]3Nc3cc(-c4cccc(F)c4)ccn3)C2)cc1 [Example 36, 4-((S)-3-((1R,2R)-2-(4-(3-Fluorophenyl)pyridin-2-ylamino)cyclohexylamino)piperidin-1-yl)benzonitrile tris-trifluoroacetate] |
| 82 nM | N#Cc1ccc(N2CCC[C@H](N[C@@H]3CCCC[C@H]3Nc3cc(-c4ccccc4F)ccn3)C2)cc1 [Example 37, 4-((S)-3-((1R,2R)-2-(4-(2-Fluorophenyl)pyridin-2-ylamino)cyclohexylamino)piperidin-1-yl)benzonitrile tris-trifluoroacetate] |
| 8 nM | N#Cc1ccc(N2CCC[C@H](N[C@@H]3CCCC[C@H]3Nc3ncc(-c4ccc(OC(F)(F)F)cc4)o3)C2)cc1Cl [Example 38, 2-Chloro-4-((S)-3-((1R,2R)-2-(5-(4-(trifluoromethoxy)phenyl)oxazol-2-ylamino)cyclohexylamino)piperidin-1-yl)benzonitrile bis-trifluoroacetate] |
| 35 nM | N#Cc1ccc(N2CCC[C@H](N[C@@H]3CCCC[C@H]3Nc3ncc(-c4ccccc4F)o3)C2)cc1Cl [Example 39, 2-Chloro-4-((S)-3-((1R,2R)-2-(5-(2-fluorophenyl)oxazol-2-ylamino)cyclohexylamino)piperidin-1-yl)benzonitrile bis-trifluoroacetate] |
| 29 nM | N#Cc1ccc(N2CCC[C@H](N[C@@H]3CCCC[C@H]3Nc3nccc(-c4ccccc4)n3)C2)cc1Cl [Example 40, 2-Chloro-4-((S)-3-((1R,2R)-2-(4-phenylpyrimidin-2-ylamino)cyclohexylamino)piperidin-1-yl)benzonitrile bis-trifluoroacetate] |
| 2510 nM | N#Cc1ccc(N2CCC[C@H](N[C@@H]3CCCC[C@H]3Nc3noc(-c4ccccc4)n3)C2)cc1 [Example 41] |
| 45 nM | N#Cc1ccc(N2CCC[C@H](N[C@@H]3CCCC[C@H]3Nc3ncc(-c4ccccc4)s3)C2)cc1 [Example 42, 4-((S)-3-((1R,2R)-2-(5-Phenylthiazol-2-ylamino)cyclohexylamino)piperidin-1-yl)benzonitrile] |
| 18 nM | N#Cc1ccc(N2CCC[C@H](N[C@@H]3CCCC[C@H]3Nc3cc(-c4ccc(OC(F)F)cc4)ccn3)C2)cc1 [Example 43, 4-((S)-3-((1R,2R)-2-(4-(4-(Difluoromethoxy)phenyl)pyridin-2-ylamino)cyclohexylamino)piperidin-1-yl)benzonitrile tris-trifluoroacetate] |
| 50 nM | N#Cc1ccc(N2CCC[C@H](N[C@@H]3CCCC[C@H]3Nc3cc(-c4ccc(F)cc4)ccn3)C2)cc1 [Example 44, 4-((S)-3-((1R,2R)-2-(4-(4-Fluorophenyl)pyridin-2-ylamino)cyclohexylamino)piperidin-1-yl)benzonitrile tris-trifluoroacetate] |
| 19 nM | N#Cc1ccc(N2CCC[C@H](N[C@@H]3CCCC[C@H]3Nc3cc(-c4ccc(O)cc4)ccn3)C2)cc1 [Example 45, 4-((S)-3-((1R,2R)-2-(4-(4-Hydroxyphenyl)pyridin-2-ylamino)cyclohexylamino)piperidin-1-yl)benzonitrile tris-trifluoroacetate] |
| 208 nM | N#Cc1ccc(N2CCC[C@H](N[C@@H]3CCCC[C@H]3Nc3cc(-c4ccc(Cl)cc4)ccn3)C2)cc1 [Example 46, 4-((S)-3-((1R,2R)-2-(4-(4-Chlorophenyl)pyridin-2-ylamino)cyclohexylamino)piperidin-1-yl)benzonitrile tris-trifluoroacetate] |
| 34 nM | N#Cc1ccc(N2CCC[C@H](N[C@@H]3CCCC[C@H]3Nc3nccc(-c4ccccc4)n3)C2)cc1F [Example 47, 2-Fluoro-4-((S)-3-((1R,2R)-2-(4-phenylpyrimidin-2-ylamino)cyclohexylamino)piperidin-1-yl)benzonitrile bis-trifluoroacetate] |
| 6 nM | N#Cc1ccc(N2CCC[C@H](N[C@@H]3CCCC[C@H]3Nc3ncc(-c4ccccc4)o3)C2)cc1F [Example 48, 2-Fluoro-4-((S)-3-((1R,2R)-2-(5-phenyloxazol-2-ylamino)cyclohexylamino)piperidin-1-yl)benzonitrile bis-trifluoroacetate] |
| 2 nM | N#Cc1ccc(N2CCC[C@H](N[C@@H]3CCCC[C@H]3Nc3ncc(-c4ccc(OC(F)(F)F)cc4)o3)C2)cc1F [Example 49, 2-Fluoro-4-((S)-3-((1R,2R)-2-(5-(4-(trifluoromethoxy)phenyl)oxazol-2-ylamino)cyclohexylamino)piperidin-1-yl)benzonitrile bis-trifluoroacetate] |
| 231 nM | N#Cc1ccc(N2CCC[C@H](N[C@@H]3CCCC[C@H]3Nc3cc(Br)ccn3)C2)cc1 [Example 50, 4-((S)-3-((1R,2R)-2-(4-Bromopyridin-2-ylamino)cyclohexylamino)piperidin-1-yl)benzonitrile] |
